# Where two headings read alike, the source gives them in different places.
# Assays:
# human plasmin = human plasmin (Homo sapiens, UniProt P00747); experiment: Inhibition of human plasmin, chromogenic substrate Tos-Gly-Pro-Lys-pNA, Ki according to Dixon; type: biochemical
# Experimental: The measurements were carried out on a microplate reader at 25′C.
# (§1) The measurements were carried out on a microplate reader at 25° C. […] The Ki-values for the respective inhibitors were calculated according to Dixon34 using a linear regression proaram. Bz-βAla-Gly-Arg-pNA was used as the substrate for human uPA and Tos-Gly-Pro-Lys-pNA for human plasmin.
# human uPA = human uPA (Homo sapiens, UniProt P00749); experiment: Inhibition of human uPA (urokinase), chromogenic substrate Bz-βAla-Gly-Arg-pNA, Ki according to Dixon; type: biochemical
# Experimental: The measurements were carried out on a microplate reader at 25° C.
# as §1
# [1] = comparative inhibitor compositions, 0.1% inhibitor and 99.9% of glycerine 86%, 25° C., pH 8.0, Dixon, read-out: Ki for plasmin inhibition
# human plasmin, sequence (P00747 581-810 limits assumed): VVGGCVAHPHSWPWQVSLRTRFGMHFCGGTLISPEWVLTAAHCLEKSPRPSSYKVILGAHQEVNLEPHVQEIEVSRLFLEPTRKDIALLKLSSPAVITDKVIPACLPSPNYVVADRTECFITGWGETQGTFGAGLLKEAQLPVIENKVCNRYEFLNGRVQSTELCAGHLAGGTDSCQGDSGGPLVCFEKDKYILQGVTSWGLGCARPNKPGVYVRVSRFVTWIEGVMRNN
# human plasmin, sequence (P00747 97-580 partner limits assumed): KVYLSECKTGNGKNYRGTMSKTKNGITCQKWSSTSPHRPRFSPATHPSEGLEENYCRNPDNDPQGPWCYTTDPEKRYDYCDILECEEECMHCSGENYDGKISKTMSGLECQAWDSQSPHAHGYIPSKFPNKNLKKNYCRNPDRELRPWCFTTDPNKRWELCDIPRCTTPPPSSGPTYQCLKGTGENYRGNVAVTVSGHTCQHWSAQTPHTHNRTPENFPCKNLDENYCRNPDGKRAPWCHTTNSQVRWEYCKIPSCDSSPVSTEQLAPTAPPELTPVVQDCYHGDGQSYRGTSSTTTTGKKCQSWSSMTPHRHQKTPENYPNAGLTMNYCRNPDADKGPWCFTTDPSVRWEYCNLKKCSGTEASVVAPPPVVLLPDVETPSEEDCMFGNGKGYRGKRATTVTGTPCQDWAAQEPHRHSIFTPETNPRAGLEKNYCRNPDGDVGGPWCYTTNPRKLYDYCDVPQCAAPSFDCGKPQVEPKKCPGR
Ki (human plasmin; [1]) [nM],"Ki (human uPA; comparative inhibitor compositions, 0.1% inhibitor and 99.9% of glycerine 86%, 25° C., pH 8.0, Dixon, read-out: Ki for uPA inhibition) [nM]",Structure (SMILES),Ki (human plasmin) [nM],"Ki for plasmin inhibition compared to 3 other 4-amidino benzylamines (human plasmin; compared to the Gly, Ala and Lys analogues of WO2009/026949)",Ki (human uPA) [nM]
540,,CC(NC(=O)C(CO)NS(=O)(=O)Cc1ccccc1)C(=O)NCc1ccc(C(=N)N)cc1 [Benzylsulfonyl-D-Ser-Ala-(4-amidino-benzylamide)],,,
11000,,N=C(N)c1ccc(CNC(=O)CNC(=O)[C@@H](CO)NS(=O)(=O)Cc2ccccc2)cc1 [Benzylsulfonyl-D-Ser-Gly-(4-amidino-benzylamide)],,,
360,24,"N=C(N)c1ccc(CNC(=O)C(CCCCN)NC(=O)C(CO)NS(=O)(=O)Cc2ccccc2)cc1 [Benzylsulfonyl-D-Ser-Lys-(4-amidino-benzylamide), reference compound]",,,
,,N=C(N)c1ccc(CNC(=O)C(CCc2ccccc2)NC(=O)C(CO)NS(=O)(=O)Cc2ccccc2)cc1 [benzylsulfonyl-D-Ser-homoPhe-(4-amidino-benzylamide)],36,an order of magnitude better,28

# Reference: US20150174021A1, “COSMETIC COMPOSITION COMPRISING BENZYLSULFONYL-D-SER-HOMOPHE-(4-AMIDINO-BENZYLAMIDE) AND A POLYALCOHOL” (DSM IP ASSETS B.V., priority 2012, published 2015)
